Assay results from paper PMC7766697, “Toxicological Screening of Four Bioactive Citroflavonoids: In Vitro, In Vivo, and In Silico Approaches” (Molecules, 2020).
Where two headings read alike, the source gives them in different places.

Assays:
MDCK cells = assay: MTT-based cytotoxicity assay in MDCK cells; format: cell-based, Canine; details: 48 h, 125 to 750 µg/mL (QRT effect at 250 and 500 µg/mL)
Description: (§1) VERO and MDCK cell lines were acquired from American Type Culture Collection (ATCC, Manassas, VA, USA). […] In vitro cytotoxicity assay was performed on Madin-Darby Canine Kidney Epithelial Cells (MDCK) and green Monkey Kidney Cells (VERO) by MTT-based assay. Briefly, cells were seeded in 96-well plates at a density of 2.5 × 10^3 cells/well. […] The absorbance was measured after 45 min using a microplate reader (Multiskan Asent®) at a wavelength of 550 nm. The criteria for categorizing cytotoxicity against MDCK and VERO cells are based on the U.S. National Cancer Institute (NCI). The criteria comprise as follow: […] All results were expressed as mean ± standard error. The results from the in vivo and in vitro experiments were analyzed using software Origin® 8.0. […] The IC50 (half inhibitory concentration) values were calculated in Origin software®, (Northampton, MA, USA) and one-way ANOVA analysis was compared with cisplatin as the control.

Sprague-Dawley rats = tested on: Sprague-Dawley rats; parameters: method as in PMID 28662177; details: sub-chronic oral, 13 weeks, cited from earlier work
Wistar rats [1] = assay: Acute oral toxicity, OECD Test No. 423 (mortality, signs, LD50, body weight); format: in vivo; details: oral 300 mg/kg, days 7 and 10
Description: Female Wistar rats (250 g b.w.) were used. These animals were obtained from Bioterium from División de Ciencias de la Salud at the Universidad de Quintana Roo. They were maintained under standard environmental conditions (22 ± 3 °C, 12 h/12 h light/dark cycle), and free access to standard rodent diet and water ad libitum. All animal procedures were conducted under our Federal Regulations for Animal Experimentation and Care and were approved by the Institutional Animal Care and Use Committee of the “Universidad Juárez Autónoma de Tabasco” university (Code:2017-001, Approved: October 2017). Rats were acclimatized for 1 week before the start of experimental procedures.
The half lethal dose (LD50) was estimated using the fixed-dose method described in OECD Guidelines for the Testing of Chemicals (Test No. 423: Acute Oral Toxicity-Class Method; OECD, 2001). […] This method allowed a step-by-step assay according to the chosen dose to begin the experiment. Subsequently, depending on the presence or absence of mortality, the decision to continue within the next step is taken, so fewer experimental animals should be used.
(§2) Rats used for this experiment were fasted for 8 h and were organized into two groups of three rats for each dose and each flavonoid. Likewise, the control group received isotonic 0.9% sodium chloride solution (dose: 5 mL/kg). All rats were closely observed for toxic symptoms and behavioral changes (sedation, hyperactivity, writhing, pruritus, feeding and drinking habits, general morphological changes, and bite legs) for 30 min and periodically 24 h post-administration. Animals were observed daily (14 days) and mortality rate recorded. A LD50 was estimated according to criteria of OECD guide 423.
The rats’ body weight in each group was determined and recorded before the treatment initiation and after 14 days. Changes in the body weight at the end of the 14 days were calculated. Once observation time was completed and to detect any adverse effect, blood samples were collected by cardiac puncture after the previous fasting of 8 h. […] In addition, organ weight was determined.

Wistar rats [2] = format: in vivo; details: rats, after 14 days
Description: as §2
The rats’ body weight in each group was determined and recorded before the treatment initiation and after 14 days. Changes in the body weight at the end of the 14 days were calculated. Once observation time was completed and to detect any adverse effect, blood samples were collected by cardiac puncture after the previous fasting of 8 h. For this purpose, rats were anesthetized by intraperitoneally 50 mg/kg sodium pentobarbital. The liver was carefully extracted, rinsed in normal saline, drained on blotting paper, and carefully examined for tissue lesions. In addition, organ weight was determined.
Rat blood samples were analyzed by a hematology auto-analyzer system (Sysmex XS-1000i®, SYSMEX®, Oak Ridge, TN, USA). The parameters quantified on this stage were: blood count-packed cell volume (PCV), red blood cell (RBC) count, hemoglobin (Hb), platelet count, white blood cell (WBC) count, mean cell hemoglobin concentration (MCHC), mean red cell volume (MCV), mean cell hemoglobin (MCH), prothrombin time (PT), and activated partial thromboplastin time (aPTT).

VERO cells = assay: MTT-based cytotoxicity assay in VERO cells; format: cell-based, green Monkey; details: 48 h, 125 to 750 µg/mL (QRT effect at 250–750 µg/mL)
Description: as §1

Wistar rats [3] = details: rats; for ALB (albumin) / ALB/GL Ratio / ALT / AST / DB (direct bilirubin) / GL (globulin) / GLU (glucose) / IB (indirect bilirubin) / TB (total bilirubin) / TP (total protein): after 14 days, plasma
Sprague Dawley rats = tested on: Sprague Dawley rats; parameters: method as in PMID 30991075; details: early report; cited from earlier work

Structure (SMILES): COc1ccc([C@@H]2CC(=O)c3c(O)cc(O[C@@H]4O[C@H](CO[C@@H]5O[C@@H](C)[C@H](O)[C@@H](O)[C@H]5O)[C@@H](O)[C@H](O)[C@H]4O)cc3O2)cc1O [HESP, hesperidin]
- percentage viability / growth of cells (MDCK cells): did not change the percentage of growth
- weight gain (Sprague-Dawley rats; 1000 mg/kg): did at 1000 mg/kg
- weight gain (Sprague-Dawley rats; 250 and 500 mg/kg): did not modify weight gain
- weight gain vs control (Wistar rats [1]): considerable weight gain differences
- APTT (Wistar rats [2]; oral 300 mg/kg): 28.53 ± 4.31 s
- Basophils (Wistar rats [2]; oral 300 mg/kg): 2.13±1.74 103/µL
- Eosinophils (Wistar rats [2]; oral 300 mg/kg): 3.60±0.76 103/µL
- Erythrocytes (Wistar rats [2]; oral 300 mg/kg): 7.90±0.30 106/µL
- Hb (Wistar rats [2]; oral 300 mg/kg): 14.20 ± 0.37 g/dL
- Hto (Wistar rats [2]; oral 300 mg/kg): 44.96±0.91%
- Leukocytes (Wistar rats [2]; oral 300 mg/kg): 4.50±0.89 103/µL
- Lymphocytes (Wistar rats [2]; oral 300 mg/kg): 72.27±4.36 103/µL
- MCH (Wistar rats [2]; oral 300 mg/kg): 18.00 ± 0.24 pg
- MCHC (Wistar rats [2]; oral 300 mg/kg): 31.56 ± 0.64 g/dL
- MCV (Wistar rats [2]; oral 300 mg/kg): 57.06 ± 1.87 fL
- Monocytes (Wistar rats [2]; oral 300 mg/kg): 7.07±1.50 103/µL
- PT (Wistar rats [2]; oral 300 mg/kg): 17.86 ± 0.40 s
- Platelets (Wistar rats [2]; oral 300 mg/kg): 720.00±125.23 105/µL
- RBCDW (Wistar rats [2]; oral 300 mg/kg): 17.00±0.61%
- APTT (Wistar rats [2]; oral 2000 mg/kg): 32.53 ± 3.93 s
- Basophils (Wistar rats [2]; oral 2000 mg/kg): 0.00±0.00 103/µL
- Eosinophils (Wistar rats [2]; oral 2000 mg/kg): 3.67±0.54 103/µL
- Erythrocytes (Wistar rats [2]; oral 2000 mg/kg): 8.04±0.22 106/µL
- Hb (Wistar rats [2]; oral 2000 mg/kg): 14.20 ± 0.36 g/dL
- Hto (Wistar rats [2]; oral 2000 mg/kg): 43.26±0.89%
- Leukocytes (Wistar rats [2]; oral 2000 mg/kg): 6.68±0.72 103/µL
- Lymphocytes (Wistar rats [2]; oral 2000 mg/kg): 77.33±3.24 103/µL
- MCH (Wistar rats [2]; oral 2000 mg/kg): 17.70 ± 0.24 pg
- MCHC (Wistar rats [2]; oral 2000 mg/kg): 32.83 ± 0.35 g/dL
- MCV (Wistar rats [2]; oral 2000 mg/kg): 53.86 ± 0.37 fL
- Monocytes (Wistar rats [2]; oral 2000 mg/kg): 7.13±1.15 103/µL
- PT (Wistar rats [2]; oral 2000 mg/kg): 17.73 ± 0.50 s
- Platelets (Wistar rats [2]; oral 2000 mg/kg): 628.66±28.31 105/µL
- RBCDW (Wistar rats [2]; oral 2000 mg/kg): 17.83±1.50%
- percentage viability / growth of cells (VERO cells): did not change the percentage of growth
- ALB (albumin) (Wistar rats [3]; oral 300 mg/kg): 4.15 ± 0.20 g/dL
- ALB/GL Ratio (Wistar rats [3]; oral 300 mg/kg): 2.36 ± 0.101
- ALT (Wistar rats [3]; oral 300 mg/kg): 33.78 ± 1.30 IU/L
- AST (Wistar rats [3]; oral 300 mg/kg): 126.00 ± 13.18 IU/L
- DB (direct bilirubin) (Wistar rats [3]; oral 300 mg/kg): 0.020 ± 0.005 mg/dL
- GL (globulin) (Wistar rats [3]; oral 300 mg/kg): 1.76 ± 0.069 g/dL
- GLU (glucose) (Wistar rats [3]; oral 300 mg/kg): 155.33 ± 18.71 mg/dL
- IB (indirect bilirubin) (Wistar rats [3]; oral 300 mg/kg): 0.029 ± 0.003 mg/dL
- TB (total bilirubin) (Wistar rats [3]; oral 300 mg/kg): 0.051 ± 0.002 mg/dL
- TP (total protein) (Wistar rats [3]; oral 300 mg/kg): 5.91 ± 0.25 g/dL
- ALB (albumin) (Wistar rats [3]; oral 2000 mg/kg): 4.20 ± 0.22 g/dL
- ALB/GL Ratio (Wistar rats [3]; oral 2000 mg/kg): 2.38 ± 0.270
- ALT (Wistar rats [3]; oral 2000 mg/kg): 41.19 ± 2.83 IU/L
- AST (Wistar rats [3]; oral 2000 mg/kg): 226.65 ± 44.80 IU/L
- DB (direct bilirubin) (Wistar rats [3]; oral 2000 mg/kg): 0.018 ± 0.005 mg/dL
- GL (globulin) (Wistar rats [3]; oral 2000 mg/kg): 1.80 ± 0.108 g/dL
- GLU (glucose) (Wistar rats [3]; oral 2000 mg/kg): 192.06 ± 12.73 mg/dL
- IB (indirect bilirubin) (Wistar rats [3]; oral 2000 mg/kg): 0.046 ± 0.010 mg/dL
- TB (total bilirubin) (Wistar rats [3]; oral 2000 mg/kg): 0.060 ± 0.06 mg/dL
- TP (total protein) (Wistar rats [3]; oral 2000 mg/kg): 5.99 ± 0.11 g/dL
- glucose values vs control (Wistar rats [3]; oral, doses tested, more evident at NAR 300 and 2000 mg/kg and NARGE 300 mg/kg): slightly amended glucose values
- acute oral LD50 (Sprague Dawley rats): 4837.5 mg/kg
